Assay results reported in ChEMBL document CHEMBL5506020 (J Med Chem, 2024).
Active and inactive are the calls of the source. The calls are words filed in the database; no cut-off is given here.

Legend:
[1] = tested on: MV4-11; assay: Antiproliferative activity against human MV4-11 cells incubated for 120 hrs by Cell-Titer Glo assay; settings: MV4-11, 120 h
[2] = target: Protein cereblon/Histone acetyltransferase p300 (Homo sapiens) (UniProt Q09472+Q96SW2); assay: PROTAC activity at CRBN/p300 in human MV4-11 cells assessed as p300 degradation at 10 to 50 nM incubated for 24 hrs by Western blotting analysis; type: cell-based; settings: dose 10-50 nM
Protein cereblon/Histone acetyltransferase p300 (Homo sapiens), sequence (Q09472 2-2414 limits assumed): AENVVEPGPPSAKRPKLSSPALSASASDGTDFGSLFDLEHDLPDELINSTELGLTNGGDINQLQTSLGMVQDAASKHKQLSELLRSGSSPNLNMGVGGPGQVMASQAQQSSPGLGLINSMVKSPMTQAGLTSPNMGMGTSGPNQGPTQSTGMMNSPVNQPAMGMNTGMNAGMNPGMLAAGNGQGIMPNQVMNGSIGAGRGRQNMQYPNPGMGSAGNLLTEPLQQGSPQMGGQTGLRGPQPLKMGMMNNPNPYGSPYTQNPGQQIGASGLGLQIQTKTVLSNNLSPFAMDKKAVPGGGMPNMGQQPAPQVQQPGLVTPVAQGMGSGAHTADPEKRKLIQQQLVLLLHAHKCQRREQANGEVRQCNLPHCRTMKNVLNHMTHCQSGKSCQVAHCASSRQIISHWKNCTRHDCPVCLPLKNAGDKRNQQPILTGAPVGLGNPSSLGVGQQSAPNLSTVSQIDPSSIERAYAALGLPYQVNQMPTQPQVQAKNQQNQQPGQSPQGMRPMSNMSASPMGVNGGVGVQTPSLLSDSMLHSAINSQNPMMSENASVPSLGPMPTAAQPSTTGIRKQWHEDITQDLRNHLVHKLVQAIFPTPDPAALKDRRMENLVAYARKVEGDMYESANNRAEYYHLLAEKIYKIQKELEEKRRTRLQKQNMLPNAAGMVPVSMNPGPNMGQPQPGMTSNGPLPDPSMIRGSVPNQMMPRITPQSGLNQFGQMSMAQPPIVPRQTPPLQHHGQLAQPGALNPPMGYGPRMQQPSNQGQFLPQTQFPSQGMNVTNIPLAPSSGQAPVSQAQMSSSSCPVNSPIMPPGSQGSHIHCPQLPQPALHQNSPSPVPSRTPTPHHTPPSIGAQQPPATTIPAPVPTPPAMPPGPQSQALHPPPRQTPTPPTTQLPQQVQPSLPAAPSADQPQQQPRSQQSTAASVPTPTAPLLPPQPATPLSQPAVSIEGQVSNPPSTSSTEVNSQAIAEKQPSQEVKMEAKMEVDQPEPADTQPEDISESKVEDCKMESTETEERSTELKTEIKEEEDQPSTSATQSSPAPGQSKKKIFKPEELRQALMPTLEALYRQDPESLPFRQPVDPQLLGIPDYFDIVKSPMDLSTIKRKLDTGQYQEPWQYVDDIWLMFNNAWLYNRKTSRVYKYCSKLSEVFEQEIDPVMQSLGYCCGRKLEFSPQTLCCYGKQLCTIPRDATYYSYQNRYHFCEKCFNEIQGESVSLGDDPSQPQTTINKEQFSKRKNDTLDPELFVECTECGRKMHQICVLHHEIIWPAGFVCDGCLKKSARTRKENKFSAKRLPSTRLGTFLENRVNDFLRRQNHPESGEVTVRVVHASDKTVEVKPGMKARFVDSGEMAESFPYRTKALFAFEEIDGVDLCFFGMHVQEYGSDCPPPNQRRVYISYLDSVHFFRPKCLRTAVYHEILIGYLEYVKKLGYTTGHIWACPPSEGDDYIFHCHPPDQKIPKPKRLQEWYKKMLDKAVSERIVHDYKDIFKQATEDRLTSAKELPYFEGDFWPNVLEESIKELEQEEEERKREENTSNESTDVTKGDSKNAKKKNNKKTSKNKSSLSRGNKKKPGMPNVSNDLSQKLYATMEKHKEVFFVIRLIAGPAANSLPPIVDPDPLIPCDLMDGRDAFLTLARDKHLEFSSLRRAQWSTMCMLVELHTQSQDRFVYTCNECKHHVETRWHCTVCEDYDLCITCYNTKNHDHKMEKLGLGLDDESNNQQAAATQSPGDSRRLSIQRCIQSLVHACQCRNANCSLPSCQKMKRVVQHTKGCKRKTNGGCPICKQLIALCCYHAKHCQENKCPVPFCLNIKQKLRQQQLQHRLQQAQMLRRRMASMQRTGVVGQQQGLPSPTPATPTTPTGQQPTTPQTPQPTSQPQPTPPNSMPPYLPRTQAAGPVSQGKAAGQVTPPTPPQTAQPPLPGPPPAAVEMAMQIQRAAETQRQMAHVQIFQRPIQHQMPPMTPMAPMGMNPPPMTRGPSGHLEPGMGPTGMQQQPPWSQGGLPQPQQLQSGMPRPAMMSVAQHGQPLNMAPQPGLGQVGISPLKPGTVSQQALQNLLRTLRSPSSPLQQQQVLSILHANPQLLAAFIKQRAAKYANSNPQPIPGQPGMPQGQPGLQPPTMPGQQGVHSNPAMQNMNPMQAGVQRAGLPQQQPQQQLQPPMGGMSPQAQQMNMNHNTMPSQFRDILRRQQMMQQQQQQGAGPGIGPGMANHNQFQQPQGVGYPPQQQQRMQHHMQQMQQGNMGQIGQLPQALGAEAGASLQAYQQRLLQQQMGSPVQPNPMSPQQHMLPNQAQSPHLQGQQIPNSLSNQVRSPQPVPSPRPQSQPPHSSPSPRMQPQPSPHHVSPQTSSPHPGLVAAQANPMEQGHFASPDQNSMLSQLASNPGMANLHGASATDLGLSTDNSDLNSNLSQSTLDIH
Protein cereblon/Histone acetyltransferase p300 (Homo sapiens), sequence (Q96SW2 whole entry partner): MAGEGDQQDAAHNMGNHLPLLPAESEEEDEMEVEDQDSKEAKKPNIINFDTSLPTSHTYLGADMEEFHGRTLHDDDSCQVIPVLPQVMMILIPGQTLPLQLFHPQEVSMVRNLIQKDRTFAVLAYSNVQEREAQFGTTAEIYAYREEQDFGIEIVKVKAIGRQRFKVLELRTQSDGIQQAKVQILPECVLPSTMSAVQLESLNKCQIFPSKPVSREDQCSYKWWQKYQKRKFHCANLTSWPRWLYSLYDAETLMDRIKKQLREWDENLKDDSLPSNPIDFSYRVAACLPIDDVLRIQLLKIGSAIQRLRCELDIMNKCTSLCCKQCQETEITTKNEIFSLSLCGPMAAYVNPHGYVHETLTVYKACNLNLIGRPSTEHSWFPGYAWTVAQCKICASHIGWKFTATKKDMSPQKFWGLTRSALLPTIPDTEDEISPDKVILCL

[3] = tested on: MOLM-13; assay: Antiproliferative activity against human MOLM-13 cells incubated for 72 hrs by Cell-Titer Glo assay; settings: MOLM-13, 72 h
[4] = Antiproliferative activity against human MOLM16 cells incubated for 72 hrs by Cell-Titer Glo assay; settings: MOLM16, 72 h
[5] = tested on: MV4-11; assay: Downregulation of c-Myc protein level in human MV4-11 cells at 50 nM incubated for 24 hrs by Western blotting analysis; type: functional, cell-based
[6] = tested on: MOLM-16; assay: Downregulation of c-Myc protein level in human MOLM16 cells at 50 nM incubated for 24 hrs by Western blotting analysis; type: functional, cell-based
[7] = tested on: MOLM-13; assay: Downregulation of c-Myc protein level in human MOLM-13 cells at 50 nM incubated for 24 hrs by Western blotting analysis; type: functional, cell-based

SMILES	IC50 [1] [nM]	Activity [2]	also measured
Cc1noc(C)c1-c1ccc2c(c1)nc([C@@H]1CCCC(=O)N1c1ccc(F)c(F)c1)n2C1CCN(CC(=O)NCCOCCNc2ccc3c(c2)C(=O)N(C2CCC(=O)NC2=O)C3=O)CC1 (stereo not given in full)	1700	inactive	
Cc1noc(C)c1-c1ccc2c(c1)nc([C@@H]1CCCC(=O)N1c1ccc(F)c(F)c1)n2C1CCN(CC(=O)NCCOCCOCCNc2cccc3c2C(=O)N(C2CCC(=O)NC2=O)C3=O)CC1 (stereo not given in full)	1680		
Cc1noc(C)c1-c1ccc2c(c1)nc([C@@H]1CCCC(=O)N1c1ccc(F)c(F)c1)n2C1CCN(CC(=O)N2CCC(CN3CCN(c4cccc5c4C(=O)N(C4CCC(=O)NC4=O)C5=O)CC3)CC2)CC1 (stereo not given in full)	266	inactive	
Cc1noc(C)c1-c1ccc2c(c1)nc([C@@H]1CCCC(=O)N1c1ccc(F)c(F)c1)n2C1CCN(CC(=O)N2CCN(c3cccc4c3C(=O)N(C3CCC(=O)NC3=O)C4=O)CC2)CC1 (stereo not given in full)	1700		
Cc1noc(C)c1-c1ccc2c(c1)nc([C@@H]1CCCC(=O)N1c1ccc(F)c(F)c1)n2C1CCN(CC(=O)NCCCCCNc2ccc3c(c2)C(=O)N(C2CCC(=O)NC2=O)C3=O)CC1 (stereo not given in full)	1010	inactive	
Cc1noc(C)c1-c1ccc2c(c1)nc([C@@H]1CCCC(=O)N1c1ccc(F)c(F)c1)n2C1CCN(CC(=O)N2CCC(N3CCC(Nc4cccc5c4C(=O)N(C4CCC(=O)NC4=O)C5=O)CC3)CC2)CC1 (stereo not given in full)	112		
Cc1noc(C)c1-c1ccc2c(c1)nc([C@@H]1CCCC(=O)N1c1ccc(F)c(F)c1)n2C1CCN(CC(=O)NCCOCCOCCOCCNc2ccc3c(c2)C(=O)N(C2CCC(=O)NC2=O)C3=O)CC1 (stereo not given in full)	> 10000	inactive	
Cc1noc(C)c1-c1ccc2c(c1)nc([C@@H]1CCCC(=O)N1c1ccc(F)c(F)c1)n2C1CCN(CC(=O)NCCOCCOCCOCCNc2cccc3c2C(=O)N(C2CCC(=O)NC2=O)C3=O)CC1 (stereo not given in full)	2020		
Cc1noc(C)c1-c1ccc2c(c1)nc([C@@H]1CCCC(=O)N1c1ccc(F)c(F)c1)n2C1CCN(CC(=O)NCCCCCCNc2ccc3c(c2)C(=O)N(C2CCC(=O)NC2=O)C3=O)CC1 (stereo not given in full)	1020	inactive	
Cc1noc(C)c1-c1ccc2c(c1)nc([C@@H]1CCCC(=O)N1c1ccc(F)c(F)c1)n2C1CCN(CC(=O)NCC2CCN(c3cccc4c3C(=O)N(C3CCC(=O)NC3=O)C4=O)CC2)CC1 (stereo not given in full)	980		
Cc1noc(C)c1-c1ccc2c(c1)nc([C@@H]1CCCC(=O)N1c1ccc(F)c(F)c1)n2C1CCN(CC(=O)NCCCCCCCCCCNc2cccc3c2C(=O)N(C2CCC(=O)NC2=O)C3=O)CC1 (stereo not given in full)	606	Active	
Cc1noc(C)c1-c1ccc2c(c1)nc([C@@H]1CCCC(=O)N1c1ccc(F)c(F)c1)n2C1CCN(CC(=O)NCCCCCCNc2cccc3c2C(=O)N(C2CCC(=O)NC2=O)C3=O)CC1 (stereo not given in full)	405	Active	
Cc1noc(C)c1-c1ccc2c(c1)nc([C@@H]1CCCC(=O)N1c1ccc(F)c(F)c1)n2C1CCN(CC(=O)NCCOCCOCCNc2ccc3c(c2)C(=O)N(C2CCC(=O)NC2=O)C3=O)CC1 (stereo not given in full)	6060	inactive	
Cc1noc(C)c1-c1ccc2c(c1)nc([C@@H]1CCCC(=O)N1c1ccc(F)c(F)c1)n2C1CCN(CC(=O)Nc2ccc(CCNc3cccc4c3C(=O)N(C3CCC(=O)NC3=O)C4=O)cc2)CC1 (stereo not given in full)	132	Active	
Cc1noc(C)c1-c1ccc2c(c1)nc([C@@H]1CCCC(=O)N1c1ccc(F)c(F)c1)n2C1CCN(CC(=O)NCCOCCNc2cccc3c2C(=O)N(C2CCC(=O)NC2=O)C3=O)CC1 (stereo not given in full)	1900		
Cc1noc(C)c1-c1ccc2c(c1)nc([C@@H]1CCCC(=O)N1c1ccc(F)c(F)c1)n2C1CCN(CC(=O)NCCC2CCN(c3cccc4c3C(=O)N(C3CCC(=O)NC3=O)C4=O)CC2)CC1 (stereo not given in full)	1170		
Cc1noc(C)c1-c1ccc2c(c1)nc([C@@H]1CCCC(=O)N1c1ccc(F)c(F)c1)n2C1CCN(CC(=O)NCCNc2ccc3c(c2)C(=O)N(C2CCC(=O)NC2=O)C3=O)CC1 (stereo not given in full)	1800	inactive	
Cc1noc(C)c1-c1ccc2c(c1)nc([C@@H]1CCCC(=O)N1c1ccc(F)c(F)c1)n2C1CCN(CC(=O)NCC#Cc2cccc3c2C(=O)N(C2CCC(=O)NC2=O)C3=O)CC1 (stereo not given in full)	1140		

SMILES	IC50 [1] [nM]	Activity [2]	also measured
Cc1noc(C)c1-c1ccc2c(c1)nc([C@@H]1CCCC(=O)N1c1ccc(F)c(F)c1)n2C1CCN(CC(=O)NC2CCN(c3cccc4c3C(=O)N(C3CCC(=O)NC3=O)C4=O)CC2)CC1 (stereo not given in full)	1740		
Cc1noc(C)c1-c1ccc2c(c1)nc([C@@H]1CCCC(=O)N1c1ccc(F)c(F)c1)n2C1CCN(CC(=O)NCc2ccc(CNc3cccc4c3C(=O)N(C3CCC(=O)NC3=O)C4=O)cc2)CC1 (stereo not given in full)	1220	Active	
Cc1noc(C)c1-c1ccc2c(c1)nc([C@@H]1CCCC(=O)N1c1ccc(F)c(F)c1)n2C1CCN(CC(=O)Nc2ccc(C3CCN(c4cccc5c4C(=O)N(C4CCC(=O)NC4=O)C5=O)CC3)cc2)CC1 (stereo not given in full)	30.1	Active	
Cc1noc(C)c1-c1ccc2c(c1)nc([C@@H]1CCCC(=O)N1c1ccc(F)c(F)c1)n2C1CCN(CC(=O)NCCCNc2ccc3c(c2)C(=O)N(C2CCC(=O)NC2=O)C3=O)CC1 (stereo not given in full)	2640	inactive	
Cc1noc(C)c1-c1ccc2c(c1)nc([C@@H]1CCCC(=O)N1c1ccc(F)c(F)c1)n2C1CCN(C)CC1	165		
Cc1noc(C)c1-c1ccc2c(c1)nc([C@@H]1CCCC(=O)N1c1ccc(F)c(F)c1)n2C1CCN(CC(=O)Nc2cnc(-c3ccc(CNc4cccc5c4C(=O)N(C4CCC(=O)N(C)C4=O)C5=O)cc3)nc2)CC1 (stereo not given in full)	44.2		IC50 [3]: > 1000 nM; IC50 [4]: 45.8 nM
Cc1noc(C)c1-c1ccc2c(c1)nc([C@@H]1CCCC(=O)N1c1ccc(F)c(F)c1)n2C1CCN(CC(=O)Nc2ccc(-c3ccc(CNc4cccc5c4C(=O)N(C4CCC(=O)NC4=O)C5=O)cc3)cc2)CC1 (stereo not given in full)	5.7		IC50 [3]: 137 nM; IC50 [4]: 14.4 nM; Activity [5]: Active; Activity [6]: Active; Activity [7]: Active
Cc1noc(C)c1-c1ccc2c(c1)nc([C@@H]1CCCC(=O)N1c1ccc(F)c(F)c1)n2C1CCN(CC(=O)N2CCN(CCNc3cccc4c3C(=O)N(C3CCC(=O)NC3=O)C4=O)CC2)CC1 (stereo not given in full)	223	inactive	
Cc1noc(C)c1-c1ccc2c(c1)nc([C@@H]1CCCC(=O)N1c1ccc(F)c(F)c1)n2C1CCN(CC(=O)NCCCCCNc2cccc3c2C(=O)N(C2CCC(=O)NC2=O)C3=O)CC1 (stereo not given in full)	464	Active	
Cc1noc(C)c1-c1ccc2c(c1)nc([C@@H]1CCCC(=O)N1c1ccc(F)c(F)c1)n2C1CCN(CC(=O)Nc2ccc(-c3ccc(CNc4cccc5c4C(=O)N(C4CCC(=O)N(C)C4=O)C5=O)cc3)nc2)CC1 (stereo not given in full)	86.7		IC50 [3]: > 1000 nM; IC50 [4]: 200 nM
Cc1noc(C)c1-c1ccc2c(c1)nc([C@@H]1CCCC(=O)N1c1ccc(F)c(F)c1)n2C1CCN(CC(=O)NCCCCCCCCNc2cccc3c2C(=O)N(C2CCC(=O)NC2=O)C3=O)CC1 (stereo not given in full)	218	Active	
Cc1noc(C)c1-c1ccc2c(c1)nc([C@@H]1CCCC(=O)N1c1ccc(F)c(F)c1)n2C1CCN(CC(=O)N2CCC(Nc3cccc4c3C(=O)N(C3C(=O)CCNC3=O)C4=O)CC2)CC1 (stereo not given in full)	1760		
Cc1noc(C)c1-c1ccc2c(c1)nc([C@@H]1CCCC(=O)N1c1ccc(F)c(F)c1)n2C1CCN(CC(=O)Nc2ccc(CNc3cccc4c3C(=O)N(C3CCC(=O)NC3=O)C4=O)cc2)CC1 (stereo not given in full)	84.8	Active	
Cc1noc(C)c1-c1ccc2c(c1)nc([C@@H]1CCCC(=O)N1c1ccc(F)c(F)c1)n2C1CCN(CC(=O)NCCCCNc2ccc3c(c2)C(=O)N(C2CCC(=O)NC2=O)C3=O)CC1 (stereo not given in full)	2210	inactive	
Cc1noc(C)c1-c1ccc2c(c1)nc([C@@H]1CCCC(=O)N1c1ccc(F)c(F)c1)n2C1CCN(CC(=O)Nc2ccc(CC3CCN(c4cccc5c4C(=O)N(C4CCC(=O)NC4=O)C5=O)CC3)cc2)CC1 (stereo not given in full)	273	Active	
Cc1noc(C)c1-c1ccc2c(c1)nc([C@@H]1CCCC(=O)N1c1ccc(F)c(F)c1)n2C1CCN(CC(=O)NCCC#Cc2cccc3c2C(=O)N(C2CCC(=O)NC2=O)C3=O)CC1 (stereo not given in full)	1800		
Cc1noc(C)c1-c1ccc2c(c1)nc([C@@H]1CCCC(=O)N1c1ccc(F)c(F)c1)n2C1CCN(CC(=O)NCCCCCCCNc2cccc3c2C(=O)N(C2CCC(=O)NC2=O)C3=O)CC1 (stereo not given in full)	525	Active	
Cc1noc(C)c1-c1ccc2c(c1)nc([C@@H]1CCCC(=O)N1c1ccc(F)c(F)c1)n2C1CCN(CC(=O)NCCCC#Cc2cccc3c2C(=O)N(C2CCC(=O)NC2=O)C3=O)CC1 (stereo not given in full)	1720		
